Data published in the supplement of paper PMC8149375.

How the values were obtained:
Settings in all cases: treatment: drug + dasatinib (fixed dose, not stated); 5 days
786-O [1] = assay: AUC of dose-response viability curve, drug + dasatinib, normalised to DMSO (arbitrary (AUC of normalised viability)); higher = less growth inhibition
Description: (§1)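 Primary HTS combination arm: 8 RCC cell lines treated with 8 doses (up to 10 uM) of each library drug plus a fixed dose of dasatinib (dose not stated) for 5 days; viability read by CellTiter-Glo and normalised to DMSO. GI50 was fitted with XLfit, AUC is the area under the dose-response curve, and minimum viability is the lowest fraction of DMSO viability across doses.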

TK-10 [2] = assay: as above
Description: as §1

SN12C [3] = assay: as above
Description: as §1

A498 [4] = assay: as above
Description: as §1

ACHN [5] = assay: as above
Description: as §1

769-P [6] = assay: as above
Description: as §1

CAKI-1 [7] = assay: as above
Description: as §1

UO-31 [8] = assay: as above
Description: as §1

786-O [9] = assay: minimum viability across doses, drug + dasatinib, relative to DMSO (fraction); higher = less growth inhibition
Description: as §1

TK-10 [10] = assay: as above
Description: as §1

SN12C [11] = assay: as above
Description: as §1

A498 [12] = assay: as above
Description: as §1

ACHN [13] = assay: as above
Description: as §1

769-P [14] = assay: as above
Description: as §1

CAKI-1 [15] = assay: as above
Description: as §1

UO-31 [16] = assay: as above
Description: as §1

786-O [17] = assay: GI50 of drug in presence of dasatinib; higher = less potent
Description: as §1

TK-10 [18] = assay: as above
Description: as §1

SN12C [19] = assay: as above
Description: as §1

A498 [20] = assay: as above
Description: as §1

ACHN [21] = assay: as above
Description: as §1

769-P [22] = assay: as above
Description: as §1

CAKI-1 [23] = assay: as above
Description: as §1

UO-31 [24] = assay: as above
Description: as §1

| GI50 of drug (786-O [17]) [nM] | GI50 of drug (ACHN [21]) [nM] | SMILES | AUC of dose-response viability curve (786-O [1]) | AUC of dose-response viability curve (TK-10 [2]) | AUC of dose-response viability curve (SN12C [3]) | AUC of dose-response viability curve (A498 [4]) | AUC of dose-response viability curve (ACHN [5]) | AUC of dose-response viability curve (769-P [6]) | AUC of dose-response viability curve (CAKI-1 [7]) | AUC of dose-response viability curve (UO-31 [8]) | minimum viability across doses (786-O [9]) | minimum viability across doses (TK-10 [10]) | minimum viability across doses (SN12C [11]) | minimum viability across doses (A498 [12]) | minimum viability across doses (ACHN [13]) | minimum viability across doses (769-P [14]) | minimum viability across doses (CAKI-1 [15]) | minimum viability across doses (UO-31 [16]) | GI50 of drug (TK-10 [18]) [nM] | GI50 of drug (SN12C [19]) [nM] | GI50 of drug (A498 [20]) [nM] | GI50 of drug (769-P [22]) [nM] | GI50 of drug (CAKI-1 [23]) [nM] | GI50 of drug (UO-31 [24]) [nM] |
| --- | --- | --- | --- | --- | --- | --- | --- | --- | --- | --- | --- | --- | --- | --- | --- | --- | --- | --- | --- | --- | --- | --- | --- | --- |
| 656 | 85.7 | Cc1n[nH]c2ccc(-c3cncc(OC[C@@H](N)Cc4ccccc4)c3)cc12 + Cc1nc(Nc2ncc(C(=O)Nc3c(C)cccc3Cl)s2)cc(N2CCN(CCO)CC2)n1 [dasatinib] | 1.77 | 2.16 | 1.9 | 2.92 | 1.42 | 1.98 | 1.57 | 1.97 | 0.0069 | 0.166 | 0.0087 | 0.012 | 0.00362 | 0.00989 | 0.0702 | 0.00975 | 1130 | 1530 | 1260 | 1050 | 224 | 984 |
| 402 | 68.8 | Cc1ccc(C(=O)Nc2ccc(CN3CCN(C)CC3)c(C(F)(F)F)c2)cc1C#Cc1cnc2cccnn12 + Cc1nc(Nc2ncc(C(=O)Nc3c(C)cccc3Cl)s2)cc(N2CCN(CCO)CC2)n1 [dasatinib] |  |  |  |  |  |  |  |  |  |  |  |  |  |  |  |  | 390 | 230 | 935 | 624 | 127 | 311 |
| 17.4 | 4.88 | CCC(=O)N1CCN(c2ccc(-n3c(=O)ccc4cnc5ccc(-c6cnc7ccccc7c6)cc5c43)cc2C(F)(F)F)CC1 [Torin 1] + Cc1nc(Nc2ncc(C(=O)Nc3c(C)cccc3Cl)s2)cc(N2CCN(CCO)CC2)n1 [dasatinib] | 0.988 | 1.13 | 1.16 | 1.53 | 0.722 | 1.06 | 0.983 | 1.5 | 0.0106 | 0.0693 | 0.0936 | 0.025 | 0.0484 | 0.0737 | 0.0196 | 0.00689 |  | 26.6 | 73.9 | 21.8 | 27.7 | 77 |
| < 3 | < 3 | Nc1ccc(-c2ccc3ncc4ccc(=O)n(-c5cccc(C(F)(F)F)c5)c4c3c2)cn1 [Torin 2] + Cc1nc(Nc2ncc(C(=O)Nc3c(C)cccc3Cl)s2)cc(N2CCN(CCO)CC2)n1 [dasatinib] | 0.422 | 0.828 | 0.777 | 0.961 | 0.382 | 0.828 | 0.756 | 0.727 | 0.00374 | 0.0129 | 0.0283 | 0.0422 | 0.033 | 0.0396 | 0.00828 | 0.00805 |  | 6.44 | 22.6 | 11.2 | 12.3 | 14.9 |

Further lines, the molecule ahead of its results:

| SMILES | GI50 of drug (786-O [17]) [nM] | GI50 of drug (ACHN [21]) [nM] | AUC of dose-response viability curve (786-O [1]) | AUC of dose-response viability curve (TK-10 [2]) | AUC of dose-response viability curve (SN12C [3]) | AUC of dose-response viability curve (A498 [4]) | AUC of dose-response viability curve (ACHN [5]) | AUC of dose-response viability curve (769-P [6]) | AUC of dose-response viability curve (CAKI-1 [7]) | AUC of dose-response viability curve (UO-31 [8]) | minimum viability across doses (786-O [9]) | minimum viability across doses (TK-10 [10]) | minimum viability across doses (SN12C [11]) | minimum viability across doses (A498 [12]) | minimum viability across doses (ACHN [13]) | minimum viability across doses (769-P [14]) | minimum viability across doses (CAKI-1 [15]) | minimum viability across doses (UO-31 [16]) | GI50 of drug (TK-10 [18]) [nM] | GI50 of drug (SN12C [19]) [nM] | GI50 of drug (A498 [20]) [nM] | GI50 of drug (769-P [22]) [nM] | GI50 of drug (CAKI-1 [23]) [nM] | GI50 of drug (UO-31 [24]) [nM] |
| --- | --- | --- | --- | --- | --- | --- | --- | --- | --- | --- | --- | --- | --- | --- | --- | --- | --- | --- | --- | --- | --- | --- | --- | --- |
| COc1cc(Nc2c(C#N)cnc3cc(OCCCN4CCN(C)CC4)c(OC)cc23)c(Cl)cc1Cl [Bosutinib (SKI-606)] + Cc1nc(Nc2ncc(C(=O)Nc3c(C)cccc3Cl)s2)cc(N2CCN(CCO)CC2)n1 [dasatinib] | 2190 | 56.8 | 2.37 | 2.26 | 2.24 | 2.84 | 1.45 | 2.03 | 1.85 | 2.22 | 0.0253 | 0.0934 | 0.199 | 0.294 | 0.103 | 0.105 | 0.0492 | 0.0097 | 1020 | 1330 | 3350 | 1070 | 501 |  |
| CCOc1cc2ncc(C#N)c(Nc3ccc(OCc4ccccn4)c(Cl)c3)c2cc1NC(=O)/C=C/CN(C)C [Neratinib (HKI-272)] + Cc1nc(Nc2ncc(C(=O)Nc3c(C)cccc3Cl)s2)cc(N2CCN(CCO)CC2)n1 [dasatinib] | 611 | 4.66 | 1.88 | 1.57 | 1.74 | 3.02 | 0.82 | 1.59 | 1.44 | 2.08 | 0.298 | 0.228 | 0.0625 | 0.51 | 0.0762 | 0.0611 | 0.0888 | 0.0167 | 74.2 | 215 | 6990 | 102 | 114 |  |
| Cn1c(=O)c(F)c(Nc2ccc(I)cc2F)c2c(=O)n(C[C@@H](O)CO)cnc21 [TAK-733] + Cc1nc(Nc2ncc(C(=O)Nc3c(C)cccc3Cl)s2)cc(N2CCN(CCO)CC2)n1 [dasatinib] | 452 | < 3 | 1.96 | 1.71 | 1.51 | 1.92 | 1.21 | 1.73 | 1.2 | 1.88 | 0.36 | 0.199 | 0.192 | 0.355 | 0.222 | 0.201 | 0.0816 | 0.0313 | 138 | 82.5 |  | 192 | 29.7 | 200 |
